What all share (type): in vivo
The subject of one test is Avena fatua. Description: Post-emergence herbicidal action against AVEFA. The note with it: 20 g a.i./ha, visual rating about 3 weeks after treatment. Here is the method: (§1) Post-Emergence Herbicidal Action Against Harmful Plants and Crop Plant Compatibility Seeds of monocotyledonous and dicotyledonous weeds and crop plants are placed in sandy loam in plastic or wood-fibre pots, covered with soil and cultivated in a greenhouse under controlled growth conditions. 2 to 3 weeks after sowing, the test plants are treated at the one-leaf stage. The compounds of the invention, formulated in the form of wettable powders (WP) or as emulsion concentrates (EC), are then sprayed onto the green parts of the plants as aqueous suspension or emulsion with addition of 0.5% additive at a water application rate of 600 l/ha (converted). After the test plants have been kept in the greenhouse under optimum growth conditions for about 3 weeks, the activity of the preparations is rated visually in comparison to untreated controls. For example, 100% activity=the plants have died, 0% activity=like control plants. [table]

The test system of the next test is Echinochloa crus-galli. Description: Post-emergence herbicidal action against ECHCG. The note with it: 20 g a.i./ha, visual rating about 3 weeks after treatment. Here is the method: as §1
Another test concerns DIGSA. Description: Post-emergence herbicidal action against DIGSA. Conditions: 20 g a.i./ha, visual rating about 3 weeks after treatment. The procedure:
as §1, with “plants.” for “plants. [table]”

The test system of another test is Matricaria inodora. Put plainly: Post-emergence herbicidal action against MATIN. Conditions: 20 g a.i./ha. Here is the method:
as §1

Another test concerns Abutilon theophrasti. Description: Post-emergence herbicidal action against ABUTH. Conditions: 20 g a.i./ha, visual rating about 3 weeks after treatment. The procedure:
as §1

The test system of another test is Veronica persica. Description: Post-emergence herbicidal action against VERPE. Conditions: 20 g a.i./ha. Here is the method: as §1
In another test the test system is Lolium rigidum. Put plainly: Post-emergence herbicidal action against LOLRI. Conditions: 20 g a.i./ha, visual rating about 3 weeks after treatment. Here is the method:
as §1

Another test has as its system Amaranthus retroflexus. Put plainly: Post-emergence herbicidal action against AMARE. The note with it: 20 g a.i./ha. The procedure: as §1
The next test deals with Alopecurus myosuroides. Description: Post-emergence herbicidal action against ALOMY. The note with it: 20 g a.i./ha, visual rating about 3 weeks after treatment. Here is the method: as §1
Another test deals with Polygonum convolvulus. Description: Post-emergence herbicidal action against POLCO. The note with it: 20 g a.i./ha. The procedure:
as §1

A further test relates to Setaria viridis. Description: Post-emergence herbicidal action against SETVI. The note with it: 20 g a.i./ha, visual rating about 3 weeks after treatment. Here is the method:
as §1

In another test the test system is Pharbitis purpurea. Description: Post-emergence herbicidal action against PHBPU. Conditions: 20 g a.i./ha. Here is the method:
as §1

As to `CCSCCOC(=O)C1C=CC(NC(=O)C2(C)CC(c3cc(F)cc(F)c3)=NO2)C1` (stereo not shown) [Example I-02], the “Herbicidal action against [%] AVEFA” value with Avena fatua is 90%. In addition, the “Herbicidal action against [%] ECHCG” value in the test on Echinochloa crus-galli is 90%. Moreover, the “Herbicidal action against [%] DIGSA” value with DIGSA was 90%. The “Herbicidal action against [%] MATIN” value with Matricaria inodora is 80%. Further, in the test with Abutilon theophrasti, the “Herbicidal action against [%] ABUTH” value is 90%. The “Herbicidal action against [%] VERPE” value in the test with Veronica persica was 90%. In addition, the “Herbicidal action against [%] LOLRI” value with Lolium rigidum was determined as 90%. The “Herbicidal action against [%] AMARE” value in the test on Amaranthus retroflexus is on record as 90%. Further, the “Herbicidal action against [%] ALOMY” value with Alopecurus myosuroides was determined as 100%. Moreover, in the test on Polygonum convolvulus, the “Herbicidal action against [%] POLCO” value worked out at 90%. Also, the “Herbicidal action against [%] SETVI” value in the test on Setaria viridis worked out at 90%. Moreover, the “Herbicidal action against [%] PHBPU” value with Pharbitis purpurea was 80%.

Regarding `CC1(C(=O)NC2C=CC(C(=O)OCCSCc3ccccc3)C2)CC(c2cc(F)cc(F)c2)=NO1` (stereo not shown) [Example I-07], the “Herbicidal action against [%] AVEFA” value in the test with Avena fatua is recorded as 90%. Further, in the test with Echinochloa crus-galli, the “Herbicidal action against [%] ECHCG” value was 90%. Also, the “Herbicidal action against [%] DIGSA” value in the test on DIGSA was 90%. In the test with Matricaria inodora, the “Herbicidal action against [%] MATIN” value amounted to 80%. Besides, in the test on Abutilon theophrasti, the “Herbicidal action against [%] ABUTH” value was found to be 80%. Further, in the test on Veronica persica, the “Herbicidal action against [%] VERPE” value is reported as 90%. Moreover, the “Herbicidal action against [%] LOLRI” value with Lolium rigidum was determined as 90%. The “Herbicidal action against [%] AMARE” value in the test on Amaranthus retroflexus came out at 90%. Besides, the “Herbicidal action against [%] ALOMY” value in the test with Alopecurus myosuroides stood at 90%. Further, in the test with Polygonum convolvulus, the “Herbicidal action against [%] POLCO” value is on record as 90%. Also, the “Herbicidal action against [%] SETVI” value in the test on Setaria viridis came to 90%. For the same compound, the “Herbicidal action against [%] PHBPU” value in the test on Pharbitis purpurea was 80%.

For the compound `CC1(C(=O)NC2C=CC(C(=O)OCCSc3ccccc3)C2)CC(c2cc(F)cc(F)c2)=NO1` (stereo not shown) [Example I-16], the “Herbicidal action against [%] AVEFA” value in the test with Avena fatua is recorded as 90%. Further, the “Herbicidal action against [%] ECHCG” value with Echinochloa crus-galli is 80%. Moreover, the “Herbicidal action against [%] DIGSA” value in the test on DIGSA was determined as 80%. Moreover, in the test with Matricaria inodora, the “Herbicidal action against [%] MATIN” value turned out to be 80%. Moreover, the “Herbicidal action against [%] ABUTH” value in the test on Abutilon theophrasti was 80%. In the test on Veronica persica, the “Herbicidal action against [%] VERPE” value is listed as 80%. Besides, the “Herbicidal action against [%] ALOMY” value in the test with Alopecurus myosuroides is listed as 90%. Also, the “Herbicidal action against [%] POLCO” value in the test with Polygonum convolvulus came out at 80%. In addition, the “Herbicidal action against [%] SETVI” value in the test on Setaria viridis was found to be 80%. Also, the “Herbicidal action against [%] PHBPU” value in the test with Pharbitis purpurea is 80%.

For `COC1(C(=O)NC2C=CC(C(=O)OCCSC)C2)CC(c2cc(F)cc(F)c2)=NO1` (stereo not shown) [Example I-20], the “Herbicidal action against [%] AVEFA” value in the test on Avena fatua came out at 90%. In addition, the “Herbicidal action against [%] ECHCG” value with Echinochloa crus-galli is listed as 90%. For the same compound, the “Herbicidal action against [%] DIGSA” value in the test with DIGSA is reported as 80%. Moreover, the “Herbicidal action against [%] MATIN” value in the test on Matricaria inodora turned out to be 80%. Besides, the “Herbicidal action against [%] ABUTH” value with Abutilon theophrasti amounted to 80%. Further, the “Herbicidal action against [%] VERPE” value with Veronica persica came out at 80%. Also, in the test on Lolium rigidum, the “Herbicidal action against [%] LOLRI” value is on record as 90%. Further, the “Herbicidal action against [%] AMARE” value with Amaranthus retroflexus is 80%. Also, the “Herbicidal action against [%] ALOMY” value in the test on Alopecurus myosuroides came to 90%. Moreover, the “Herbicidal action against [%] SETVI” value in the test on Setaria viridis came to 80%. For the same compound, the “Herbicidal action against [%] PHBPU” value with Pharbitis purpurea was determined as 80%.

Regarding `C=CC1(C(=O)NC2C=CC(C(=O)OCCSC)C2)CC(c2cc(Cl)cc(Cl)c2)=NO1` (stereo not shown) [Example I-55], the “Herbicidal action against [%] AVEFA” value in the test on Avena fatua is reported as 80%. Further, the “Herbicidal action against [%] DIGSA” value with DIGSA was determined as 80%. Moreover, in the test with Matricaria inodora, the “Herbicidal action against [%] MATIN” value turned out to be 80%. Also, the “Herbicidal action against [%] ABUTH” value in the test on Abutilon theophrasti came to 80%. Also, the “Herbicidal action against [%] VERPE” value in the test with Veronica persica amounted to 90%. The “Herbicidal action against [%] AMARE” value in the test on Amaranthus retroflexus came out at 90%. Besides, in the test with Alopecurus myosuroides, the “Herbicidal action against [%] ALOMY” value is 100%. Also, the “Herbicidal action against [%] POLCO” value in the test with Polygonum convolvulus is on record as 80%. The “Herbicidal action against [%] SETVI” value in the test with Setaria viridis is given as 90%. The “Herbicidal action against [%] PHBPU” value with Pharbitis purpurea is 80%.

Source of the values: patent publication US12185723B2, “Herbicidally active 3-phenylisoxazoline-5-carboxamides of s-containing cyclopentenylcarboxylic esters” (Bayer Aktiengesellschaft, priority 2019, dated 2025).
